According to patent publication US6476263B1, “Compounds for inhibiting β-amyloid peptide release and/or its synthesis” (Elan Pharmaceuticals, Inc., priority 1996, dated 2002):
Residues, ends and D or L forms follow the SMILES beside them.

SMILES	melting point
CCOC(=O)C(NC(=O)[C@H](C)NC(=O)Cc1cc(F)cc(F)c1)c1ccc2sccc2c1 (stereo partly drawn) [Example 177, Ethyl N-[N-(3,5-Difluorophenylacetyl)-L-alaninyl]-2-amino-2-(benzothiophen-5-yl)acetate]	126.5 to 127.5 °C
COC(=O)[C@H](Cc1cccs1)NC(=O)[C@H](C)NC(=O)Cc1cc(F)cc(F)c1 [Example 36, Methyl N-[N-(3,5-Difluorophenylacetyl)-L-alaninyl]-(S)-2-amino-3-(2-thienyl)propionate]	145 to 147 °C
CCOC(=O)[C@H](C)NC(=O)[C@@H](NC(=O)Cc1ccccc1)c1ccccc1 [Example 108, N-[N-(Phenylacetyl)-L-phenylglycinyl]-L-alanine Ethyl Ester] (HELM PEPTIDE1{[O=C(Cc1ccccc1)[*:2]].[Phg].A.[CCO[*:1]]}$$$$V2.0)	208 to 210 °C
CC[C@H](C)[C@H](NC(=O)CC(C)C)C(=O)N[C@@H](C)C(=O)OCC(C)C [Example 82, N-[N-(Isovaleryl)-L-isoleucinyl]-L-alanine iso-butyl Ester]	142 to 146 °C
CC(C)COC(=O)[C@H](C)NC(=O)[C@@H](NC(=O)CC(C)C)c1ccccc1 [Example 79, N-[N-(Isovaleryl)-L-phenylglycinyl]-L-alanine iso-butyl Ester]	181 to 186 °C
CCOC(=O)[C@H](C)NC(=O)[C@H](C)NC(=O)Cc1cccc([N+](=O)[O-])c1 [Example 76, N-[N-(3-Nitrophenylacetyl)-L-alaninyl]-L-alanine Ethyl Ester]	193 to 195 °C
COC(=O)[C@H](Cc1ccccc1)NC(=O)[C@H](C)NC(=O)Cc1cccc([N+](=O)[O-])c1 [Example 75, N-[N-(3-Nitrophenylacetyl)-L-alaninyl]-L-phenylalanine Methyl Ester]	154 to 158 °C
COC(=O)[C@H](Cc1ccccc1)NC(=O)[C@H](C)NC(=O)CC1=CCCCC1 [Example 69, N-[N-(Cyclohex-1-enylacetyl)-L-alaninyl]-L-phenylalanine Methyl Ester]	139 to 142 °C
CCOC(=O)[C@H](C)NC(=O)[C@@H](NC(=O)CC(C)C)c1ccccc1 [Example 74, N-[N-(Isovaleryl)-L-phenylglycinyl]-L-alanine Ethyl Ester] (HELM PEPTIDE1{[CC(C)CC(=O)[*:2]].[Phg].A.[CCO[*:1]]}$$$$V2.0)	198 to 201 °C
COC(=O)[C@H](Cc1ccccc1)NC(=O)[C@H](C)NC(=O)Cc1cccnc1 [Example 131, N-[N-(3-Pyridylacetyl)-L-alaninyl]-L-phenylalanine Methyl Ester]	150 to 152 °C
CCOC(=O)C(NC(=O)[C@H](C)NC(=O)Cc1cc(F)cc(F)c1)C1CCCCC1 (stereo partly drawn) [Example 126, Ethyl N-[N-(3,5-Difluorophenylacetyl)-L-alaninyl]-2-amino-2-cyclohexylacetate]	146 to 150 °C
C[C@H](NC(=O)Cc1cc(F)cc(F)c1)C(=O)N[C@H](C(=O)OCC(C)(C)C)c1ccccc1 [Example 138, N-[N-(3,5-Difluorophenylacetyl)-L-alaninyl]-L-phenylglycine Neopentyl Ester]	133 to 136 °C
CCOC(=O)CNC(=O)[C@H](C)NC(=O)Cc1cccc([N+](=O)[O-])c1 [Example 77, N-[N-(3-Nitrophenylacetyl)-L-alaninyl]glycine Ethyl Ester]	164 to 165 °C
COC(=O)[C@H](Cc1ccc(OCCCN(C)C)cc1)NC(=O)[C@H](C)NC(=O)Cc1cc(F)cc(F)c1 [Example 13, N-[N-(3,5-Difluorophenylacetyl)-L-alaninyl]-L-4-[3-(N,N-dimethylamino)propoxy]phenylalanine Methyl Ester]	153 to 155 °C
CCOC(=O)C(NC(=O)[C@H](C)NC(=O)Cc1cc(F)cc(F)c1)c1cccnc1 (stereo partly drawn) [Example 53, Ethyl N-[N-(3,5-Difluorophenylacetyl)-L-alaninyl]-2-amino-2-(3-pyridyl)acetate]	146 to 157 °C
COC(=O)[C@H](Cc1ccccc1)NC(=O)[C@H](C)NC(=O)CC1CC1 [Example 72, N-[N-(Cyclopropylacetyl)-L-alaninyl]-L-phenylalanine Methyl Ester]	128 to 131 °C

Continued, values first:

melting point	SMILES
152 to 153.5 °C	COC(=O)CNC(=O)[C@H](C)NC(=O)Cc1ccccc1 [Example 206, N-[N-(Phenylacetyl)-L-alaninyl]glycine Methyl Ester] (HELM PEPTIDE1{[O=C(Cc1ccccc1)[*:2]].A.G.[CO[*:1]]}$$$$V2.0)
201.4 °C	O=C(CC1CCCC1)N[C@H](C(=O)N[C@H](CO)c1ccccc1)c1ccccc1 [Example 247, N-[N-(Cyclopentaneacetyl)-L-phenylglycinyl]-L-phenylglycinol]
120 °C	CC[C@H](NC(=O)[C@H](C)NC(=O)Cc1ccccc1)C(=O)OC [Example 208, Methyl N-[N-(Phenylacetyl)-L-alaninyl]-2-(S)-aminobutanoate] (HELM PEPTIDE1{[O=C(Cc1ccccc1)[*:2]].A.[Abu].[CO[*:1]]}$$$$V2.0)
188 to 189.5 °C	CCCC[C@H](NC(=O)Cc1cc(F)cc(F)c1)C(=O)N[C@H](C(=O)OC)c1ccccc1 [Example 252, N-[N-(3,5-Difluorophenylacetyl)-L-norleucinyl]-L-phenylglycine Methyl Ester]
133 to 134 °C	COC(=O)C(NC(=O)[C@H](C)NC(=O)Cc1cc(F)cc(F)c1)c1cccc(C(F)(F)F)c1 (stereo partly drawn) [Example 183, Methyl N-[N-(3,5-Difluorophenylacetyl)-L-alaninyl]-2-amino-2-(3-trifluoromethylphenyl)acetate]
133 to 138 °C	C[C@H](NC(=O)CC1CCCC1)C(=O)N[C@H](C(=O)OC(C)(C)C)c1ccccc1 [Example 328, N-[N-(Cyclopentaneacetyl)-L-alaninyl]-L-phenylglycine tert-Butyl Ester]
158.5 to 160.5 °C	CCCC[C@H](NC(=O)[C@H](C)NC(=O)Cc1cc(F)cc(F)c1)C(=O)O [Example 327, N-[N-(3,5-Difluorophenylacetyl)-L-alaninyl]-L-norleucine]
112 to 115 °C	COC(=O)[C@@H](NC(=O)[C@H](C)NC(=O)Cc1ccccc1)C(C)C [Example 207, N-[N-(Phenylacetyl)-L-alaninyl]-L-valine Methyl Ester] (HELM PEPTIDE1{[O=C(Cc1ccccc1)[*:2]].A.V.[CO[*:1]]}$$$$V2.0)
